Reference: patent US7553798B2, “Heterocyclic carboxamides with microbiocidal activity” (Syngenta Crop Protection, Inc., priority 2004, dated 2009)

| melting point [°C] | SMILES |
| --- | --- |
| 122 to 125 | Cn1cc(C(=O)Nc2ccccc2-c2ccc(C#CC(C)(C)C)s2)c(C(F)(F)F)n1 [Compound 1ai.098, 1-methyl-3-trifluoromethyl-1H-pyrazole-4-carboxylic acid {2-[5-(3,3-dimethyl-but-1-ynyl)-thiophen-2-yl]-phenyl}-amide] |
| 145 to 148 | Cn1cc(C(=O)Nc2ccccc2-n2cc(C#CC(C)(C)C)cn2)c(C(F)F)n1 [Compound 1ar.099, 3-difluoromethyl-1-methyl-1H-pyrazole-4-carboxylic acid {2-[4-(3,3-dimethyl-but-1-ynyl)-pyrazol-1-yl]-phenyl}-amide] |
